Where a name gives a salt, the structure may show the parent alone.
Columns and labels:
FAAH [1] = target: T1, FAAH (Mus musculus, UniProt O08914); assay: In vitro/ex vivo FAAH activity determination in liver after intra-tracheal instillation; set-up: Liver and brain fragments were removed and processed for enzymatic activity determination; from tissue; host or cells: mouse liver fragment homogenate; species or system male NMRI mice; conditions: remaining enzymatic activity vs controls
T1 sequence (O08914 1-579): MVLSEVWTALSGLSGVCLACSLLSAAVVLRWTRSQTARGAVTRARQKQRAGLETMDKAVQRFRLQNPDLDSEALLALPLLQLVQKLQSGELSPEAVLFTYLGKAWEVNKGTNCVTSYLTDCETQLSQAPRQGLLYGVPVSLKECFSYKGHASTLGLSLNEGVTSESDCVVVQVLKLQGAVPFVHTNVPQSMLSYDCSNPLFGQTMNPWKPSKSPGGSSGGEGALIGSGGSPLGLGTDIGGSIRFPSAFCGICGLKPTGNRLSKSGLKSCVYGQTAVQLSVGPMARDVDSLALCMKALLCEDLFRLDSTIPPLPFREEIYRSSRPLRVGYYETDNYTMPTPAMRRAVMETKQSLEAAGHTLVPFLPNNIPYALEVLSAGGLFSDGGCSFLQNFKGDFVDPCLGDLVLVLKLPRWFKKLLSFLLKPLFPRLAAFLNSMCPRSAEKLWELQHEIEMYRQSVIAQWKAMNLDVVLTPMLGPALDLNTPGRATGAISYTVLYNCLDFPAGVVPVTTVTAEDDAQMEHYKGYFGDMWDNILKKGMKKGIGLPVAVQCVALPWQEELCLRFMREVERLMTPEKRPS
Description: (§1) To evaluate the selectivity of test compounds in inhibiting FAAH activity, male NMRI mice were administrated following instillation with 1 mg/kg compound and were sacrificed after 8 h treatment. Liver and brain fragments were removed and processed for enzymatic activity determination.
(§2) FAAH activity was measured as the amount of ^3H-ethanolamine formed, by liquid scintillation counting, from the hydrolysis of the substrate anandamide (AEA, labeled with ^3H on the ethanolamine part of the molecule). The percentage of remaining enzymatic activity was calculated in respect to controls and after blank subtraction. Therefore, a low value for the test compounds indicates a strong inhibitor.
(§3) Male NMRI mice (body weight range: 25-35 g) were obtained from Harlan Laboratories (Barcelona, Spain). Animals were kept 10 per cage, under controlled environmental conditions (12 hr light [8 am]/12 hr dark [8 pm]cycle; room temperature 22±1° C.). Food and tap water were allowed ad libitum. Animals were habituated to the animal facilities at least for a week prior to experiments. The experiments were all carried out during daylight hours.
(§4) Animals were fasted overnight before administration of compounds. […] After administration the animals were given atipamezole (1 mg/kg) to reverse the sedative and analgesic effects induced by the anaesthesia.
(§5) Fifteen minutes before sacrifice, animals were anesthetized with pentobarbital 60 mg/kg administrated intra-peritoneally. The brain (without cerebellum) and a fragment of liver were collected into plastic vials containing membrane buffer (3 mM MgCl2, 1 mM EDTA, 50 mM Tris HCl, pH 7.4). Glass beads (2.5 mm BioSpec Products, Bartlesville, Okla., USA) were added to the vials containing the brain and liver tissues. Tissues were stored at −20° C. until analysis.
(§6) Anandamide [ethanolamine-1-^3H-] was obtained from American Radiochemicals—with a specific activity of 60 Ci/mmol. All other reagents were obtained from Sigma-Aldrich. Optiphase Supermix was obtained from Perkin Elmer.
(§7) Brain and liver tissues were thawed and homogenized in 10 volumes of membrane buffer (3 mM MgCl2, 1 mM EDTA, 50 mM Tris HCl, pH 7.4) with homogenizer Precellys 24 Dual Tissue Homogenizer (Bertin Technologies) for 2 cycles of 5 sec (5000 rpm).
(§8) Total protein in the tissue homogenates was determined with the BioRad Protein Assay (BioRad) using a standard curve of BSA ([…]). Tissue homogenates were diluted to appropriate concentration for enzymatic determination in assay buffer (1 mM EDTA, 10 mM Tris HCl, pH 7.6).
(§9) Reaction mix (total volume 200 μL) contained 2 μM AEA (2 μM AEA+5 nM ^3H-AEA), 0.1% fatty acid free BSA, 15 μg (brain) or 5 μg (liver) protein, in assay buffer (1 mM EDTA, 10 mM Tris pH 7.6).
(§10) The test compound was used at a level of 1 mg/kg protein. After 15 minutes pre-incubation at 37° C. of the protein sample, reaction was started by the addition of the substrate solution (cold AEA+radiolabelled AEA+BSA). Reaction was carried out for 12 minutes for brain and liver tissues. Reaction was terminated by addition of 400 μL chloroform:methanol (1:1, v/v) solution. Reaction samples were vortex twice, left on ice for 5 minutes and then centrifuged in the microfuge for 7 minutes, 7000 rpm. 200 μL of the obtained supernatants were added to […] Optiphase Supermix scintillation cocktail previously distributed in 24-well plates.
(§11) Counts per minute (cpm) were determined in a Microbeta TriLux scintillation counter. In each assay blank samples (without protein) were prepared.

CYPs = CYPs metabolic stability assay in HLM (human liver microsomes); type: in vitro ADME; conditions: HLM 1 mg/ml protein, compound 5 μM, 60 min, 37° C.; for Control (% remain): absence of NADPH; for CYP+ (% remain): with NADPH 1 mM
Description: Stability of the test compounds was performed in HLM (human liver microsomes) in the presence and in the absence of NADPH.
The stability was measured using the incubation mixture (100 μl total volume) contained 1 mg/ml total protein, MgCl2 5 mM and 50 mM K-phosphate buffer. Samples were incubated in the presence and in the absence of NADPH 1 mM. Reactions were pre-incubated 5 min and the reaction initiated with the compound under test (at a concentration of 5 μM). Samples were incubated for 60 min in a shaking water bath at 37° C. The reaction was stopped by adding 100 μl of acetonitrile. Samples were then centrifuged, filtered and supematant injected in HLPC-MSD. Test compounds were dissolved in DMSO and the final concentration of DMSO in the reaction was below 0.5% (v/v). At T0 acetonitrile was added before adding the compound. All experiments were performed with samples in duplicate.

FAAH [2] = target: T1, FAAH; assay: In vitro/ex vivo FAAH activity determination in brain after intra-tracheal instillation; set-up: Liver and brain fragments were removed and processed for enzymatic activity determination; from tissue; species or system male NMRI mice; conditions: remaining enzymatic activity vs controls
Description: as §1, §2, §3, §4, §5, §6, §7, §8, §9, §10, §11

[3] = 1 mg/kg intra-tracheal instillation, sacrificed after 8 h
[4] = 1 mg/kg intra-tracheal instillation, sacrificed after 8 h, hydrochloride, 1 mg/kg
[5] = tested at 0.1 mg/kg rather than 1 mg/kg

SMILES | FAAH Activity - Liver itc (% C) (FAAH [1]; [3]) | Control (% remain) (CYPs) | CYP+ (% remain) (CYPs) | FAAH Activity - Brain itc (% C) (FAAH [2]; [3]) | FAAH Activity - Liver itc (% C) (FAAH [1]; [4]) | FAAH Activity - Brain itc (% C) (FAAH [2]; [4]) | FAAH Activity - Liver itc (% C) (FAAH [1]; [5]) | FAAH Activity - Brain itc (% C) (FAAH [2]; [5])
CN(C(=O)n1cnc(-c2cccc(NC(N)=O)c2)c1)C1CCN(Cc2ccc3c(c2)OCO3)CC1.Cl [Example 18, N-(1-(benzo[d][1,3]dioxol-5-ylmethyl)piperidin-4-yl)-N-methyl-4-(3-ureidophenyl)-1H-imidazole-1-carboxamide hydrochloride] | 3.4 % C | 97.6 % remain | 76.8 % remain | 93.3 % C |  |  |  | 
COc1cc(CN2CCC(N(C)C(=O)n3cnc(-c4cccc(OS(N)(=O)=O)c4)c3)CC2)ccc1F [Example 10, 3-(1-((1-(4-fluoro-3-methoxybenzyl)piperidin-4-yl)(methyl)carbamoyl)-1H-imidazol-4-yl)phenyl sulfamate hydrochloride] | 3.2 % C | 100.0 % remain | 5.8 % remain | 113.4 % C |  |  |  | 
CN(C(=O)n1cnc(-c2cccc(NS(C)(=O)=O)c2)c1)C1CCN(c2ccc(O)cc2)CC1 [Example 24, N-(1-(4-hydroxyphenyl)piperidin-4-yl)-N-methyl-4-(3-(methylsulfonamido)phenyl)-1H-imidazole-1-carboxamide hydrochloride] | 5.7 % C | 91.5 % remain | 76.2 % remain | 92.6 % C |  |  |  | 
COc1ccc(CN2CCC(N(C)C(=O)n3cnc(-c4cccc(NC(N)=O)c4)c3)CC2)cc1OC [Example 26, N-(1-(3,4-dimethoxybenzyl)piperidin-4-yl)-N-methyl-4-(3-ureidophenyl)-1H-imidazole-1-carboxamide hydrochloride] | 12.4 % C | 97.7 % remain | 81.4 % remain | 124.3 % C |  |  |  | 
COc1cccc(CN2CCC(N(C)C(=O)n3cnc(-c4cccc(OS(N)(=O)=O)c4)c3)CC2)c1.Cl [Example 11, 3-(1-((1-(3-methoxybenzyl)piperidin-4-yl)(methyl)carbamoyl)-1H-imidazol-4-yl)phenyl sulfamate hydrochloride] | 4.4 % C | 100.0 % remain | 5.9 % remain | 84.2 % C |  |  |  | 
CN(C(=O)n1cnc(-c2cccc(NC(N)=O)c2)c1)C1CCN(c2ccc(O)cc2)CC1 [Example 25, N-(1-(4-hydroxyphenyl)piperidin-4-yl)-N-methyl-4-(3-ureidophenyl)-1 H-imidazole-1-carboxamide hydrochloride] | 9.0 % C | 61.5 % remain | 49.1 % remain | 100.7 % C |  |  |  | 
CN(C(=O)n1cnc(-c2cccc(OS(N)(=O)=O)c2)c1)C1CCN(Cc2ccc3c(c2)OCO3)CC1 [Example 30, 3-(1-((1-(benzo[d][1,3]dioxol-5-ylmethyl)piperidin-4-yl)(methyl)carbamoyl)-1H-imidazol-4-yl)phenyl sulfamate hydrochloride] | 13.7 % C | 97.8 % remain | 64.8 % remain | 107.1 % C |  |  |  | 
CN(C(=O)n1cnc(-c2cccc(NC(N)=O)c2)c1)C1CCN(Cc2ccccc2)CC1 [Example 16, N-(1-benzylpiperidin-4-yl)-N-methyl-4-(3-ureidophenyl)-1H-imidazole-1-carboxamide hydrochloride] |  | 101.4 % remain | 17.0 % remain |  | 4.5 % C | 96.9 % C |  | 
CN(C(=O)n1cnc(-c2cccc(OS(N)(=O)=O)c2)c1)C1CCN(Cc2ccccc2)CC1 [Example 7, 3-(1-((1-benzylpiperidin-4-yl)(methyl)carbamoyl)-1H-imidazol-4-yl)phenyl sulfamate hydrochloride] | 3.5 % C | 92.6 % remain | 65.0 % remain | 87.2 % C |  |  |  | 
COc1ccc(F)c(CN2CCC(N(C)C(=O)n3cnc(-c4cccc(C(N)=O)c4)c3)CC2)c1 [Example 32, 4-(3-carbamoylphenyl)-N-(1-(2-fluoro-5-methoxybenzyl)piperidin-4-yl)-N-methyl-1H-imidazole-1-carboxamide hydrochloride] |  | 115.2 % remain | 14.2 % remain |  |  |  | 12.8 % C | 96.0 % C
COc1cc(CN2CCC(N(C)C(=O)n3cnc(-c4cccc(OS(N)(=O)=O)c4)c3)CC2)cc(OC)c1.Cl [Example 9, 3-(1-((1-(3,5-dimethoxybenzyl)piperidin-4-yl)(methyl)carbamoyl)-1H-imidazol-4-yl)phenyl sulfamate hydrochloride] | 3.9 % C | 102.5 % remain | 62.8 % remain | 107.2 % C |  |  |  | 

— patent US20160166560A1, “Urea Compounds and Their Use as FAAH Enzyme Inhibitors” (BIAL-PORTELA & Cª, S.A., priority 2013, published 2016)
